{"source": "patent US9493501B2", "about": "“Methyltransferase inhibitors for treating cancer” (MEMORIAL SLOAN-KETTERING CANCER CENTER, priority 2011, dated 2016)", "key": {"[1]": {"target": "T1, G9a (913-1913) (Homo sapiens, UniProt Q96KQ7)", "T1 construct": "G9a (913-1913)", "T1 sequence (Q96KQ7 913-1193)": "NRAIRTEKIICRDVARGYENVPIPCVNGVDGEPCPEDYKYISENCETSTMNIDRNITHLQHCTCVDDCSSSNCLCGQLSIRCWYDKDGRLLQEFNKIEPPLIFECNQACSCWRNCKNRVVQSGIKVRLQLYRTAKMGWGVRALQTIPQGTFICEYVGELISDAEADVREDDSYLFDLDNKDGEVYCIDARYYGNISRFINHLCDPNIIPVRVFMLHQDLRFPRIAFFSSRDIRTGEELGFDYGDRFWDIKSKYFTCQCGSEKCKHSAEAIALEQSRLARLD", "assay": "Filter-paper methylation assay, G9a", "type": "biochemical", "conditions": "20 nM enzyme, H3 (1-21 aa) peptide, 1 h"}, "[2]": {"target": "T2, GLP1 (951-1235) (Homo sapiens, UniProt Q9H9B1)", "T2 sequence (Q9H9B1 982-1266 limits assumed)": "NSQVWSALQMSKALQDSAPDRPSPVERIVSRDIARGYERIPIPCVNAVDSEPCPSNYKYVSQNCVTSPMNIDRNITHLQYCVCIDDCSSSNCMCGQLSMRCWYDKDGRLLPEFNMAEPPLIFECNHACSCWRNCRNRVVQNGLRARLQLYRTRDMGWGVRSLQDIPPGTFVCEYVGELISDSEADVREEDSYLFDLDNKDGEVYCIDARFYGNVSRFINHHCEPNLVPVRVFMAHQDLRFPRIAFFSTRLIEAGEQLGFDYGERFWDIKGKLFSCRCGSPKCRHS", "assay": "biochemical", "conditions": "10 nM enzyme, H3 (1-21 aa) peptide, 1 h"}, "[3]": {"target": "T3, SET7/9 Full-length (Homo sapiens, UniProt Q8WTS6)", "T3 construct": "SET7/9 Full-length", "T3 sequence (Q8WTS6 1-366)": "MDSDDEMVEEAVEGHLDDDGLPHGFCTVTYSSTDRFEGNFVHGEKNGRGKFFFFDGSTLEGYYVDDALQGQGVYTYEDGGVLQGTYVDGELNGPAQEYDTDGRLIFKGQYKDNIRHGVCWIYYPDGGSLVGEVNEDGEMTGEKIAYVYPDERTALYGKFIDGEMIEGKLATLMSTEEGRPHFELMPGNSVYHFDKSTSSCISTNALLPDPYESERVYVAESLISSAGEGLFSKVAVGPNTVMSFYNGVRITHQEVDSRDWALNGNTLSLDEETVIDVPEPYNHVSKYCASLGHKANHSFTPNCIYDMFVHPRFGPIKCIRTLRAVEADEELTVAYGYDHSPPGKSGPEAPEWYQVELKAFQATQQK", "assay": "Filter-paper methylation assay, SET7/9", "type": "biochemical", "conditions": "150 nM enzyme, H3 (1-21 aa) peptide, 3 h"}, "[4]": {"target": "T4, SET8 (191-352) (Homo sapiens, UniProt Q9NQR1)", "T4 construct": "SET8 (191-352)", "T4 sequence (Q9NQR1 191-352 isoform Q9NQR1-2)": "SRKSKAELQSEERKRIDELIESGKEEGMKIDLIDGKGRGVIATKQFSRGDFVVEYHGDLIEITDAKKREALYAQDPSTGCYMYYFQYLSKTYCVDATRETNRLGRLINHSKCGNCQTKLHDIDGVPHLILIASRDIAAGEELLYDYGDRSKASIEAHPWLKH", "assay": "Filter-paper methylation assay, SET8", "type": "biochemical", "conditions": "1000 nM enzyme, H4 (10-30 aa) peptide, 8 h"}, "[5]": {"target": "T5, SETD2 (1347-1711) (Homo sapiens, UniProt Q9BYW2)", "T5 construct": "SETD2 (1347-1711)", "T5 sequence (Q9BYW2 1347-1711)": "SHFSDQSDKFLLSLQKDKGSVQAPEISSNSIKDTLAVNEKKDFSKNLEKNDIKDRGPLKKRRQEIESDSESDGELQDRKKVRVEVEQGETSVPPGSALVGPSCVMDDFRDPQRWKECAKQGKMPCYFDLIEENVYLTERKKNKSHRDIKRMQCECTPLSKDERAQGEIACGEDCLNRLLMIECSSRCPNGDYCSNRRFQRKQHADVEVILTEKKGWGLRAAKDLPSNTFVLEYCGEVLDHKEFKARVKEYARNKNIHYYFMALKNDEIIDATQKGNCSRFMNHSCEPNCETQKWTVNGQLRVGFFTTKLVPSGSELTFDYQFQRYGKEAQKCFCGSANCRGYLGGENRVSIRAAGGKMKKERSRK", "assay": "Filter-paper methylation assay, SETD2", "type": "biochemical", "conditions": "250 nM enzyme, H3 (20-50 aa) peptide, 4 h"}, "[6]": {"target": "T6, PRMT1 (10-352) (Homo sapiens, UniProt Q99873)", "T6 construct": "PRMT1 (10-352)", "T6 sequence (Q99873 10-352 isoform Q99873-3, species assumed)": "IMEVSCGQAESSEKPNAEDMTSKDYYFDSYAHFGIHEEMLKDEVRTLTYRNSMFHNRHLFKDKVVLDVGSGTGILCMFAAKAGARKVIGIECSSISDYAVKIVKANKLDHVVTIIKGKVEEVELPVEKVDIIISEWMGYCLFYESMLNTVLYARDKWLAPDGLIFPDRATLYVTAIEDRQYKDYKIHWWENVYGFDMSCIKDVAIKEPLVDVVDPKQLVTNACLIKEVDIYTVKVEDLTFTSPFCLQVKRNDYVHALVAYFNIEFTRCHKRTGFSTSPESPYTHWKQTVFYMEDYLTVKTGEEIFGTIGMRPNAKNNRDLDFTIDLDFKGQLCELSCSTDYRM", "assay": "Filter-paper methylation assay, PRMT1", "type": "biochemical", "conditions": "100 nM enzyme, RGG peptide, 1.5 h"}, "[7]": {"target": "T7, PRMT3 (211-531) (Homo sapiens, UniProt O60678)", "T7 construct": "PRMT3 (211-531)", "T7 sequence (O60678 211-531)": "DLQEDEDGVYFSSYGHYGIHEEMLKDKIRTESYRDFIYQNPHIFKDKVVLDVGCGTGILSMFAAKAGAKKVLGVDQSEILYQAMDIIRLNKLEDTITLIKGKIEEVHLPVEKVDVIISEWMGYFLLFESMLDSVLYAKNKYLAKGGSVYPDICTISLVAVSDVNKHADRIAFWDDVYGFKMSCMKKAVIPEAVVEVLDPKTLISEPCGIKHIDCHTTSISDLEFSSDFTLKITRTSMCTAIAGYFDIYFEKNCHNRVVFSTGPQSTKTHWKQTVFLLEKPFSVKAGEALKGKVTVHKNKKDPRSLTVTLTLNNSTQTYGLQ", "assay": "Filter-paper methylation assay, PRMT3", "type": "biochemical", "conditions": "100 nM enzyme, RGG peptide, 3 h"}, "[8]": {"target": "T8, SUV39H2 (112-410) (Homo sapiens, UniProt Q9H5I1)", "T8 construct": "SUV39H2 (112-410)", "T8 sequence (Q9H5I1 112-410)": "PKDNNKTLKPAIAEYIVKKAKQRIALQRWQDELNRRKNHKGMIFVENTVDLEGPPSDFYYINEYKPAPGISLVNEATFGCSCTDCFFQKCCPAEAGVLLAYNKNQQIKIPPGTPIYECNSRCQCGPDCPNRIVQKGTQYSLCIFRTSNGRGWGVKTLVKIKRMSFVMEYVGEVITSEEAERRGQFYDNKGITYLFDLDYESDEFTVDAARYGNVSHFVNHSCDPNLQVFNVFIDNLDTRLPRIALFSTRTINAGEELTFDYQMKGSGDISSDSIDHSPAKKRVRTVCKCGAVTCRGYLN", "assay": "Filter-paper methylation assay, SUV39H2", "type": "biochemical", "conditions": "5 nM enzyme, H3 (1-21 aa) peptide, 4 h"}, "[9]": {"target": "T9, CARM1 (19-608) (Homo sapiens, UniProt Q86X55)", "T9 construct": "CARM1 (19-608)", "T9 sequence (Q86X55 19-608)": "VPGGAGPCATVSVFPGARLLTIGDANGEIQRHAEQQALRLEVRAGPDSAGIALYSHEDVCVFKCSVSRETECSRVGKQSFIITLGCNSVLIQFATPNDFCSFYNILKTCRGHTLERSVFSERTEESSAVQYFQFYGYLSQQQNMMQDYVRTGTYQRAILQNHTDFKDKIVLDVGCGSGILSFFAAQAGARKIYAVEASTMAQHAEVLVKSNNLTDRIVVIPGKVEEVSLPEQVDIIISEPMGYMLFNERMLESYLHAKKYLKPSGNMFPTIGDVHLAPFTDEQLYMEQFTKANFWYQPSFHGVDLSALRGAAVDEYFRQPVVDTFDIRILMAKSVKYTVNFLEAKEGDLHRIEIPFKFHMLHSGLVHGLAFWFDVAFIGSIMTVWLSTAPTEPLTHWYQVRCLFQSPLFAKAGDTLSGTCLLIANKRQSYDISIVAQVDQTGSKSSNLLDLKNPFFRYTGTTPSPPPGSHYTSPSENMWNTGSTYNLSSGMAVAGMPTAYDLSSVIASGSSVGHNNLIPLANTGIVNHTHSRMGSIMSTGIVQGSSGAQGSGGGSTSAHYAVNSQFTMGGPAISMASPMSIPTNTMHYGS", "assay": "Filter-paper methylation assay, CARM1", "type": "biochemical", "conditions": "300 nM enzyme, H3 (1-40 aa) peptide, 7 h; read-out: IC50 CARM1"}, "[10]": {"target": "T10, SMYD2 Full-length (Homo sapiens, UniProt Q9NRG4)", "T10 construct": "SMYD2 Full-length", "T10 sequence (Q9NRG4 whole entry, the tested form may be a part)": "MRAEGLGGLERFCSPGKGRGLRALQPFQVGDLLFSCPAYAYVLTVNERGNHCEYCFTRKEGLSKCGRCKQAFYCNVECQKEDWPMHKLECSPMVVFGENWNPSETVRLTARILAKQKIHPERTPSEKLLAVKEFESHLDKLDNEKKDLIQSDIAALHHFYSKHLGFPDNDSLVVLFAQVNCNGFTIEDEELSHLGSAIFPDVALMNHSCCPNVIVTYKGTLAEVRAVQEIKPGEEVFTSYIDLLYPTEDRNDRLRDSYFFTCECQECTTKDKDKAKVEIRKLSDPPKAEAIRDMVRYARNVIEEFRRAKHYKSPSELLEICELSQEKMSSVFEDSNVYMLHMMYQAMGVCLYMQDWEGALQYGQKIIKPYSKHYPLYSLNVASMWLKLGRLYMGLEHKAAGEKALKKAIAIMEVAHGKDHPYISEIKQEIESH", "assay": "Filter-paper methylation assay, SMYD2", "type": "biochemical", "conditions": "50 nM enzyme, p53 (360-393 aa) peptide, 10 h; read-out: IC50 SMYD2-FL"}, "[11]": {"tested_on": "histone 3 lysine 36 tri-methyl", "assay": "Cellular assay, histone methylation in HEK-293T cells", "type": "cell-based", "conditions": "\"in vivo\", up to 100 μM, 24 h, H3K36 tri-methyl blot"}}}
{"compound": "CCCN[C@@H](CC[C@H](N)C(=O)O)C[C@H]1O[C@@H](n2cnc3c(N)ncnc32)[C@H](O)[C@@H]1O", "note": "[Compound 102]", "values": [{"measurement": "IC50", "setting": "[1]", "result": "> 100", "unit": "µM"}, {"measurement": "IC50", "setting": "[2]", "result": "> 100", "unit": "µM"}, {"measurement": "IC50", "setting": "[3]", "result": 2200, "unit": "nM"}, {"measurement": "IC50", "setting": "[4]", "result": "> 100", "unit": "µM"}, {"measurement": "IC50", "setting": "[5]", "result": 800, "unit": "nM"}, {"measurement": "IC50", "setting": "[6]", "result": 9.5, "unit": "µM"}, {"measurement": "IC50", "setting": "[7]", "result": "~100", "unit": "µM"}, {"measurement": "IC50", "setting": "[8]", "result": 9.8, "unit": "µM"}, {"measurement": "IC50", "setting": "[9]", "result": 3000, "unit": "nM"}, {"measurement": "IC50", "setting": "[10]", "result": 500, "unit": "nM"}, {"measurement": "inhibiting histone methyltransferase", "setting": "[11]", "result": "showed activity in inhibiting histone methyltransferase"}]}
